For 3 compounds, residual activity and inhibition results are on record in ChEMBL document CHEMBL5696442, “Discovery of type II inhibitors of TGFβ-activated kinase 1 (TAK1) and mitogen-activated protein kinase kinase kinase kinase 2 (MAP4K2)” (J Med Chem, 2015).

Activity calls are given as the source filed them. The rule behind the calls is not given here.

Test [1] concerns the target Death-associated protein kinase 1 (Homo sapiens) (UniProt P53355). Briefly: Inhibition of DAPK1 (unknown origin) at 1 uM by Ambit Kinomescan binding assay relative to control; values are per cent of control.
Test [2] has as its target STE20-like serine/threonine-protein kinase (Homo sapiens) (UniProt Q9H2G2). Nature of the test: Inhibition of SLK Lys1 labeling site in human A-375 cells at 0.5 uM by KiNativ Profiling analysis relative to control. Type of test: cell-based.
Test [3] addresses T1, Serine/threonine-protein kinase tousled-like 1 (Homo sapiens) (UniProt Q9UKI8).
T1 sequence (whole entry): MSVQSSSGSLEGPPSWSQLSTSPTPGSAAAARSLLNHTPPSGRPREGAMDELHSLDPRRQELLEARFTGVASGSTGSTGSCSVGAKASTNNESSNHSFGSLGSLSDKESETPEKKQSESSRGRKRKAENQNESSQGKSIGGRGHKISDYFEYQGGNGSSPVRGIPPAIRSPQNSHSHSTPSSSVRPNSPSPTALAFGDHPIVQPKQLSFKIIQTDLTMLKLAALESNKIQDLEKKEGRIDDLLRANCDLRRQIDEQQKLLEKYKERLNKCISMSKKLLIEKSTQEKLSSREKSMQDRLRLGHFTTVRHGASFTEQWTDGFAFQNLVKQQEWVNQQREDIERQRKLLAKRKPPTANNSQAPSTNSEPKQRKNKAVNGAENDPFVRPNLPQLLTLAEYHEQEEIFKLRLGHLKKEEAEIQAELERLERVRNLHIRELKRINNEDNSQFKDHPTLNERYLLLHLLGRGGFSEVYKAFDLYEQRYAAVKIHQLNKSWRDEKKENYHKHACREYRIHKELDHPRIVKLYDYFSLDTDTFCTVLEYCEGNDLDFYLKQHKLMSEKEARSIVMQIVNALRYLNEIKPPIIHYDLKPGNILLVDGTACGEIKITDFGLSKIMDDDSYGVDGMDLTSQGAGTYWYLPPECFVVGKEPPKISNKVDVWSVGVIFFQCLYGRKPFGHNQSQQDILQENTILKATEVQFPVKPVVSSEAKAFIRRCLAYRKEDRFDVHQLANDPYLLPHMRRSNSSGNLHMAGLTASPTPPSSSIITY
Nature of the test: Inhibition of TLK1 (unknown origin) at 1 uM by Ambit Kinomescan binding assay relative to control.

Test [4] addresses Serine/threonine-protein kinase Nek4 (Homo sapiens) (UniProt P51957). Nature of the test: Inhibition of NEK4 (unknown origin) at 1 uM by Ambit Kinomescan binding assay relative to control; values are per cent of control.
Test [5] deals with Serine/threonine-protein kinase 38-like (Homo sapiens) (UniProt Q9Y2H1). Nature of the test: Inhibition of NDR2 ACT labeling site in human A-375 cells at 5 uM by KiNativ Profiling analysis relative to control. It counts as cell-based.
Chain of Serine/threonine-protein kinase 38-like (Homo sapiens) (Q9Y2H1 2-464 limits assumed): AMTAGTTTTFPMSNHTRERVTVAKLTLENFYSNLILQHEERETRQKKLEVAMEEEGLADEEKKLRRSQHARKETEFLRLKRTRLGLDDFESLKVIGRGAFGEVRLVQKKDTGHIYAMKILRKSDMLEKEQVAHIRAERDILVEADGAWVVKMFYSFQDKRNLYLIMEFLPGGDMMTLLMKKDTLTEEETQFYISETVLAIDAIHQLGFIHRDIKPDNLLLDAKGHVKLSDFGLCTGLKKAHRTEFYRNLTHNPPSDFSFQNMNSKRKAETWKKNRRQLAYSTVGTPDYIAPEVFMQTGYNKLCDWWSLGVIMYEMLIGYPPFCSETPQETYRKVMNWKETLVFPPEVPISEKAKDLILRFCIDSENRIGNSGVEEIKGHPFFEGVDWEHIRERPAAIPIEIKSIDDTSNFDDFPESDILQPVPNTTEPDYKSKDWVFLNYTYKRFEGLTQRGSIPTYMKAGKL
Test [6] concerns the target Casein kinase II subunit alpha (Homo sapiens) (UniProt P68400). Nature of the test: Inhibition of CSNK2A1 (unknown origin) at 10 uM by Ambit Kinomescan binding assay.
For test [7], the target named is Serine/threonine-protein kinase 10 (Homo sapiens) (UniProt O94804). Briefly: Inhibition of LOK Lys1 labeling site harbouring ETGALAAAKVIETK in human A-375 cells at 5 uM by KiNativ Profiling analysis relative to control. It counts as cell-based.
Chain of Serine/threonine-protein kinase 10 (Homo sapiens) (O94804 whole entry, looked up): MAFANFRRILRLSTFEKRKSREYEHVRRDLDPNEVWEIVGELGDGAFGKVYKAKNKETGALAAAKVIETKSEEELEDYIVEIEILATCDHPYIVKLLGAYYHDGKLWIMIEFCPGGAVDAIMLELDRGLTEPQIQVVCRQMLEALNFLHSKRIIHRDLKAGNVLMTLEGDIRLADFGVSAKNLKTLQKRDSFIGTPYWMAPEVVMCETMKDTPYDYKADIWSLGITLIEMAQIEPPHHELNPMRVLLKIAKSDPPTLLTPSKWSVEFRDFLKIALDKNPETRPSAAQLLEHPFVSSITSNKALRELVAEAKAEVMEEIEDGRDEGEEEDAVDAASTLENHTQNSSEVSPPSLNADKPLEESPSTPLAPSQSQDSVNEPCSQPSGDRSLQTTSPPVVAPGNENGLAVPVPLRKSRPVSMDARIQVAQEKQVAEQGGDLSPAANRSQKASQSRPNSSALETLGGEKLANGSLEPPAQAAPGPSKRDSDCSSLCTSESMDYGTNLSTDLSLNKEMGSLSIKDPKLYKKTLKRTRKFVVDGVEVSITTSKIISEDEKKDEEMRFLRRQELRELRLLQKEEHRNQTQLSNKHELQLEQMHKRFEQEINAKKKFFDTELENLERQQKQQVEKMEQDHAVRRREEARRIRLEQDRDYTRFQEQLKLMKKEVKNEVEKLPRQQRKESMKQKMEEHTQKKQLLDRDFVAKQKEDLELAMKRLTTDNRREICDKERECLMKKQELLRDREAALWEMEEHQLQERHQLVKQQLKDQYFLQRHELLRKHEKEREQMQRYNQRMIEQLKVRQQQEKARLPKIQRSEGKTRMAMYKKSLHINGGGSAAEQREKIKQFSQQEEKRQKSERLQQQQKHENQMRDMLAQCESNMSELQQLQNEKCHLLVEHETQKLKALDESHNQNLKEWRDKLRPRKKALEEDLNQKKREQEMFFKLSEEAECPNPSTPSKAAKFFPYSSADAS
The target of test [8] is T2, Mitogen-activated protein kinase kinase kinase 3 (Homo sapiens) (UniProt Q99759).
T2 sequence (whole entry): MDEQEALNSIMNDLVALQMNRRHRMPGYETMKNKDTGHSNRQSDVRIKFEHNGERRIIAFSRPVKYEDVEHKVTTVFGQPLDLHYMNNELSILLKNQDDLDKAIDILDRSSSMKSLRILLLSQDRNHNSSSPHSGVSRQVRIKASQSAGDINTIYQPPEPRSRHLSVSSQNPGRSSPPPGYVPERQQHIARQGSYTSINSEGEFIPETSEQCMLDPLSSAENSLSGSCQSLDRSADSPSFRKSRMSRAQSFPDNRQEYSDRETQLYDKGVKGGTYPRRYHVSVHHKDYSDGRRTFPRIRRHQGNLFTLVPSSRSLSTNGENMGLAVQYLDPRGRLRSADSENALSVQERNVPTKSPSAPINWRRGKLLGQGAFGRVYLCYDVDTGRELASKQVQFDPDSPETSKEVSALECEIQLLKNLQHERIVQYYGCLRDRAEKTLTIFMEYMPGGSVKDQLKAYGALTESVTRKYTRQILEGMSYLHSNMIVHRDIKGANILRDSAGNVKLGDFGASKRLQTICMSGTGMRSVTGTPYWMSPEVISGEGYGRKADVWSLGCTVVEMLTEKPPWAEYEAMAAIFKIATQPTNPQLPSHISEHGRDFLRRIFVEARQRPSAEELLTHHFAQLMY
Briefly: Inhibition of MAP3K3 Lys2 labeling site in human A-375 cells at 0.5 uM by KiNativ Profiling analysis relative to control. It counts as cell-based.

The target of test [9] is T3, Serine/threonine-protein kinase TBK1 (Homo sapiens) (UniProt Q9UHD2).
T3 sequence (whole entry): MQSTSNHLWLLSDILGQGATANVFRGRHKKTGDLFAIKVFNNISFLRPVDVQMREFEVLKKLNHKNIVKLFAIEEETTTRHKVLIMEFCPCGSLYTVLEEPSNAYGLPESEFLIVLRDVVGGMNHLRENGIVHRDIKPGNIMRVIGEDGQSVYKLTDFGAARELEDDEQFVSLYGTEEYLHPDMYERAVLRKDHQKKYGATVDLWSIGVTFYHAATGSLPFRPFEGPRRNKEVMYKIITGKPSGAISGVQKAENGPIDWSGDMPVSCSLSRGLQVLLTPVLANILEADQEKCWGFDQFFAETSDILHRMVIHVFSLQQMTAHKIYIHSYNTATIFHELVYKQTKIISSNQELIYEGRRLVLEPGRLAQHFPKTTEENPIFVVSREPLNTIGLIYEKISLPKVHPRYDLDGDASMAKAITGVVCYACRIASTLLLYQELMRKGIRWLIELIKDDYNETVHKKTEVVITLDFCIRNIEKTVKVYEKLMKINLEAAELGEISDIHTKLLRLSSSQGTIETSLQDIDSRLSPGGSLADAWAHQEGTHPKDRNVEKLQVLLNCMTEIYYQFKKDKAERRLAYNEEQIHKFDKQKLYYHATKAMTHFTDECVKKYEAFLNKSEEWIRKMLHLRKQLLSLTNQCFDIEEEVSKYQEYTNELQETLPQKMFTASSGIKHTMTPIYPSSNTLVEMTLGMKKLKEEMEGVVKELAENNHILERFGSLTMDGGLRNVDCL
Briefly: Inhibition of TBK1 K2 labeling site in human Huh-7 cells at 1 uM by KiNativ Profiling analysis relative to control. It counts as cell-based.

Test [10] concerns the target STE20-like serine/threonine-protein kinase (Homo sapiens) (UniProt Q9H2G2). Nature of the test: Inhibition of SLK K1 labeling site in human Huh-7 cells at 1 uM by KiNativ Profiling analysis relative to control. It counts as cell-based.
For test [11], the target named is Calcium/calmodulin-dependent protein kinase type II subunit gamma (Homo sapiens) (UniProt Q13555). Nature of the test: Inhibition of CaMK2g Lys1 labeling site harbouring KTSTQEYAAKIINTK in human Huh-7 cells at 1 uM by KiNativ Profiling analysis relative to control. It counts as cell-based.
Chain of Calcium/calmodulin-dependent protein kinase type II subunit gamma (Homo sapiens) (Q13555 whole entry): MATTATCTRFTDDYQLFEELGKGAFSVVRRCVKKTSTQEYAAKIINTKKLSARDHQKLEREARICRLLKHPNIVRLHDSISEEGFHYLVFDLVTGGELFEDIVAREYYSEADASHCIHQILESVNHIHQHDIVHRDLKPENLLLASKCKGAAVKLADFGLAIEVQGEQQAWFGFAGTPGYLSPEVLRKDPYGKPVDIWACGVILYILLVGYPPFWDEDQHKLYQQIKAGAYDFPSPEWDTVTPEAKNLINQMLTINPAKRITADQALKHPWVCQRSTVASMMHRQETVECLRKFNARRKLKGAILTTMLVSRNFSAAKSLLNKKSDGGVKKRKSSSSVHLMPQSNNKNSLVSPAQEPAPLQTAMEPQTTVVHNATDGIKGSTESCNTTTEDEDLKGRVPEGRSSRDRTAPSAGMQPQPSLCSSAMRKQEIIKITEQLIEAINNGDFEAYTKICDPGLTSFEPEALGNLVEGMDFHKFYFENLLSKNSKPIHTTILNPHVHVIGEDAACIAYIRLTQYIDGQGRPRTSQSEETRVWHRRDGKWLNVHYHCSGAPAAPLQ

Chain of STE20-like serine/threonine-protein kinase (Homo sapiens) (Q9H2G2 whole entry, looked up): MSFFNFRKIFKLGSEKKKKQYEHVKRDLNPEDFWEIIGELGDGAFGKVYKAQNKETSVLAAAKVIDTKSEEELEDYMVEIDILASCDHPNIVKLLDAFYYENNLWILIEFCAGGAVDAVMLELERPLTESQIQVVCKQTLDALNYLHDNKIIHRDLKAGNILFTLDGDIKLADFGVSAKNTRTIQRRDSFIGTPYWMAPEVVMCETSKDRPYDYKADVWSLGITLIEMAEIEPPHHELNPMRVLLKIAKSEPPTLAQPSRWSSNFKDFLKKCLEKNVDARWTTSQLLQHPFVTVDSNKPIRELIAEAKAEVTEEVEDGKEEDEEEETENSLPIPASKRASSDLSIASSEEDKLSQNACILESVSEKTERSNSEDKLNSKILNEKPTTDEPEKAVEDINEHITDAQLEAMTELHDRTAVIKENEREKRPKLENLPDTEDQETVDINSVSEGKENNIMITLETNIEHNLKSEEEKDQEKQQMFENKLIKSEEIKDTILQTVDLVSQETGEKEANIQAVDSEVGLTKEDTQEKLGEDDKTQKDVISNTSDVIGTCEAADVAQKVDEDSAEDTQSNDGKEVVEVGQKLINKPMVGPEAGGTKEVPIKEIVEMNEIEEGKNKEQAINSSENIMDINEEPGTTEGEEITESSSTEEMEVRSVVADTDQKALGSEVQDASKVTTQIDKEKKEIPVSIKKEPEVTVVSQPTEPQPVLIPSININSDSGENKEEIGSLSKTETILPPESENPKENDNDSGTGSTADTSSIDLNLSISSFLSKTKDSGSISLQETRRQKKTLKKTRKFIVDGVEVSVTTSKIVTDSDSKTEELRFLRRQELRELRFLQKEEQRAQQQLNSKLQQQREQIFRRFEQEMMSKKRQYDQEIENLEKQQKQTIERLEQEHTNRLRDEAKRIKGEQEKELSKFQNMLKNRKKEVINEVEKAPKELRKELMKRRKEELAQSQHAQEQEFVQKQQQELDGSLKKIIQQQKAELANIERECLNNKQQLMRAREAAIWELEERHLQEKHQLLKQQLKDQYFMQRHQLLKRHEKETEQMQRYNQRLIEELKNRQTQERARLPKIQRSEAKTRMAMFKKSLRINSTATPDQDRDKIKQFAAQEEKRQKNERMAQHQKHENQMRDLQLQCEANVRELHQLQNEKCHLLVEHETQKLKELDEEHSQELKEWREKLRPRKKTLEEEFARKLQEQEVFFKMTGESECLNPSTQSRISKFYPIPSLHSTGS
Chain of Death-associated protein kinase 1 (Homo sapiens) (P53355 whole entry, looked up): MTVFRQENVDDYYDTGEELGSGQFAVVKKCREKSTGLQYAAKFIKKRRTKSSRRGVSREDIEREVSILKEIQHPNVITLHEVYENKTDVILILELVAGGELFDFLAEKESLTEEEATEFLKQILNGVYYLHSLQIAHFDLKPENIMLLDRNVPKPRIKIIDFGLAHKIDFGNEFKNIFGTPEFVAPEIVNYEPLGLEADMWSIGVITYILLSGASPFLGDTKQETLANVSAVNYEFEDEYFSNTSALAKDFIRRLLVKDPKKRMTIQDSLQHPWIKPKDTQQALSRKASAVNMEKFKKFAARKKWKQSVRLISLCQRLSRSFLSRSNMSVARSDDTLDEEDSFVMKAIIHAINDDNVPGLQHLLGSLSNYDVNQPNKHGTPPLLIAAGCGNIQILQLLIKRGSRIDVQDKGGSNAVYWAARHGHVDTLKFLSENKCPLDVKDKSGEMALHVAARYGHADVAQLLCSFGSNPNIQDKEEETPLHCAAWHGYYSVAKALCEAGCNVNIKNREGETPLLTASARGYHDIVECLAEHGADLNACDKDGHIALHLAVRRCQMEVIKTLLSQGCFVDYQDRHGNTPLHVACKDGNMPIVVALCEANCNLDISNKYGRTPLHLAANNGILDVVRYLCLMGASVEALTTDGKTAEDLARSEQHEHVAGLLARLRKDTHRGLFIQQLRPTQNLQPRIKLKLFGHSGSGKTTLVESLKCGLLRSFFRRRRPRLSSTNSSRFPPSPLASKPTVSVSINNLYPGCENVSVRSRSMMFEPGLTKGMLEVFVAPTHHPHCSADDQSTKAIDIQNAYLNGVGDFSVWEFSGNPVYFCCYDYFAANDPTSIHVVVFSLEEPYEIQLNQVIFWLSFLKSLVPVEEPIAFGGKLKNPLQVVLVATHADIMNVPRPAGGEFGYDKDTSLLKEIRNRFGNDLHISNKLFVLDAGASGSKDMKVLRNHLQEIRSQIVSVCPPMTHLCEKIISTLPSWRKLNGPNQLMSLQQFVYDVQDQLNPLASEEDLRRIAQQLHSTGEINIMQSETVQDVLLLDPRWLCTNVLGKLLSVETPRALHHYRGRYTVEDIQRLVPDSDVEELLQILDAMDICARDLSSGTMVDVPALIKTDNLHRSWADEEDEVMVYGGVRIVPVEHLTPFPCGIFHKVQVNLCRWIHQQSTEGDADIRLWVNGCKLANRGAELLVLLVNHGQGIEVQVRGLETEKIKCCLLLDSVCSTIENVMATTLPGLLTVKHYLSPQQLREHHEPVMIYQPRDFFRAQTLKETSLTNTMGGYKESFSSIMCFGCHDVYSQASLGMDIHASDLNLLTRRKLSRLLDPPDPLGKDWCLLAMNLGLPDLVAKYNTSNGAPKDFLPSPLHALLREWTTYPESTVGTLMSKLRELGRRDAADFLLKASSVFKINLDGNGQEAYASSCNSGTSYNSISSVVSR
Chain of Casein kinase II subunit alpha (Homo sapiens) (P68400 whole entry, looked up): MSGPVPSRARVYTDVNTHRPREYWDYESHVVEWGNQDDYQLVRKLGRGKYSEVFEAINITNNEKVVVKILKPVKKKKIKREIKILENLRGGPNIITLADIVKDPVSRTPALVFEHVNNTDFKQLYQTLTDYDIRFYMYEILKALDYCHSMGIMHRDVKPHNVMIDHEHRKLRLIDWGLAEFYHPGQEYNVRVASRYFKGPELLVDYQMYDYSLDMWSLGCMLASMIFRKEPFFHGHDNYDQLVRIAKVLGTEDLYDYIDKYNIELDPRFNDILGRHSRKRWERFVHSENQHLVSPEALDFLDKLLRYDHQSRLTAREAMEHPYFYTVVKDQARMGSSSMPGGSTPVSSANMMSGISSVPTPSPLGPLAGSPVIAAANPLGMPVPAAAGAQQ

For the compound `CCN1CCN(Cc2ccc(NC(=O)c3ccc(C)c(/C=C/c4cnc5[nH]ccc5c4OC)c3)cc2C(F)(F)F)CC1`, the residual activity in test [1] was 77%; in test [4], 100%. In addition, the inhibition in [2] was 6.8%; in test [3], 79%; in test [5], -2.6%.
As for `CCN1CCN(Cc2ccc(NC(=O)c3ccc(C)c(Oc4ccnc5[nH]ccc45)c3)cc2C(F)(F)F)CC1`, the inhibition result in [6] is “inactive”. For the same compound, the inhibition turned out to be 82.3% in test [7], 2.8% in test [8], 17.7% in [9] and 3.5% in test [10].
In the case of `CNc1cc(Oc2cc(C(=O)Nc3cc(N4CCN(C)CC4)cc(C(F)(F)F)c3)ccc2C)ncn1`, in test [11], the inhibition stood at 24.3%.

What is called residual activity is what remains of the control signal, in per cent. Low values mean a large loss of activity, high ones a small loss of activity. One may read the inhibition as the change of the read-out against control, counted positive when it falls.
